For data set [1] the following is noted: intravenous infusion, fasting individuals, published data; cited from earlier work.
Data set [2] can be described thus: Published subcutaneous administration of GLP-1 to fasting subjects (Nauck, FIG. 8). The class given is in vivo, human. The source says:
A study by M. A. Nauck of subcutaneous administration of GLP-1 to fasting subjects illustrates changes in the pharmocokinetics with dose (FIG. 8). This could be due to changes in bioavailability with dose, changes in clearance with dose, or a combination of both effects.

Data set [3] concerns blood glucose. Put plainly: Blood glucose after buccal bilayer tablet, double-blind placebo-controlled crossover. The conditions noted are these: 400 μg buccal bilayer tablet, fasting healthy volunteers. The source says:
This example describes a double-blind, placebo-controlled, crossover comparison with random assignment to treatment sequence. […] Inclusion criteria for the volunteers were normal glucose tolerance, weight within 22<BMI<26, informed consent to participate in the study, and age between 20 and 60 years. […]
Subject numbers were allotted to the subjects in the order in which they were enrolled in the study. The number allotted to each subject determined the treatment sequence received. […]
Subjects were instructed to fast the night before a treatment. […] Standard safety variables were determined under fasting conditions before each experiment. Blood glucose was monitored frequently and glucose infusion was available in case of hypoglycemia (<2.5 mmol/L). […]
(§1) Blood samples were taken for pharmacokinetic analysis 10 minutes before application of the drug, and at 5, 10, 15, 20, 25, 30, 40, 50, 60, 75, 90, 120, 150, 180, 210, 240, and 270 minutes and 6 and 8 hours after application of the drug. […] The peptide content of bilayer tablet samples was also analyzed by HPLC. […]

Data set [4] is described as follows: clinical.
Description: This example describes a double-blind, placebo-controlled, crossover comparison with random assignment to treatment sequence. […] Inclusion criteria for the volunteers were normal glucose tolerance, weight within 22<BMI<26, informed consent to participate in the study, and age between 20 and 60 years. Exclusion criteria were impaired glucose tolerance (2-hour glucose tolerance test; OGTT), gastrointestinal symptoms, ongoing medication or illness, acute infection, abnormal laboratory variables (hemoglobin, hematocrit, leucocytes, creatinine, bilirubin, calcium, potassium, sodium, alkaline phosphatase, gamma-GT, SGOT, SGPT, cholesterol, and triglycerides), and blood pressure greater than 185 mmHg systolic and/or 90 mmHg diastolic.
Subject numbers were allotted to the subjects in the order in which they were enrolled in the study. The number allotted to each subject determined the treatment sequence received. Subjects receiving treatment sequence 1 were treated with drug followed by placebo, and subjects receiving treatment sequence 2 were treated with placebo followed by drug.
Subjects were instructed to fast the night before a treatment. At the clinic, the subjects were given either a drug-containing bilayer tablet or placebo. […] Standard safety variables were determined under fasting conditions before each experiment. Blood glucose was monitored frequently and glucose infusion was available in case of hypoglycemia (<2.5 mmol/L). […]
as §1
The data summarized in FIG. 7 were analyzed by AUC to provide an estimate of relative bioavailability by buccal administration as compared to subcutaneous administration.

The mark [5] stands for this setting: after administration, 400 μg buccal bilayer tablet.

Like-named read-outs stand apart in the source and are kept apart here. Some results are limits rather than exact numbers.

For “GLP-1: GLP-1 given intravenously (7-37 and 7-36 amide) or subcutaneously to fasting subjects in published studies used for comparison”, the clearance was approximately 15 mL/min/kg in data set [1] and “about 40 ml/min/kg” in data set [2] (subcutaneous administration, regression analysis of all results). In addition, in data set [2] (subcutaneous), the “bioavailability by subcutaneous administration relative to intravenous administration” value worked out at 38%.
With `CC[C@H](C)[C@H](NC(=O)[C@H](Cc1ccccc1)NC(=O)[C@H](CCC(=O)O)NC(=O)[C@H](CCCCN)NC(=O)[C@H](C)NC(=O)[C@H](C)NC(=O)[C@H](CCC(N)=O)NC(=O)CNC(=O)[C@H](CCC(=O)O)NC(=O)[C@H](CC(C)C)NC(=O)[C@H](Cc1ccc(O)cc1)NC(=O)[C@H](CO)NC(=O)[C@H](CO)NC(=O)[C@@H](NC(=O)[C@H](CC(=O)O)NC(=O)[C@H](CO)NC(=O)[C@@H](NC(=O)[C@H](Cc1ccccc1)NC(=O)[C@@H](NC(=O)CNC(=O)[C@H](CCC(=O)O)NC(=O)[C@H](C)NC(=O)[C@@H](N)Cc1c[nH]cn1)[C@@H](C)O)[C@@H](C)O)C(C)C)C(=O)N[C@@H](C)C(=O)N[C@@H](Cc1c[nH]c2ccccc12)C(=O)N[C@@H](CC(C)C)C(=O)N[C@H](C(=O)N[C@@H](CCCCN)C(=O)NCC(=O)N[C@@H](CCCNC(=N)N)C(N)=O)C(C)C` [GLP-1(7-36)amide], the hypoglycemia result in data set [3] was “does not result in hypoglycemia”. In addition, in data set [4] (setting [5]), the “time of onset of sharp rise of plasma GLP-1(7-36)amide level” value was not above 5 min and the “time until which elevated GLP-1(7-36)amide levels remain in the blood” value was “about 150 minutes”. Moreover, in data set [4] (human, plasma, 400 ug), the F rel turned out to be 27%.
